Assay results reported in patent US11401264B2, “Heterocyclic compound” (Orizuru Therapeutics, Inc., priority 2018, dated 2022).

Tested on: cardiomyocytes from double knock-in human iPS cell lines (mCherry at TNNI3 locus)
Assay: Experimental Example 1: mCherry (TNNI3 reporter) immunostaining measured by high contents screening
Assay type: cell-based
Design: key to average fluorescent intensity (at 30 μM): —: The symbol in Table 2 means that the average fluorescent intensity cannot be evaluated due to cell decrease
Conditions: read on 8th day, Alexa 647 anti-mCherry, control well 797
Method in brief: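 Double knock-in iPS lines (EmGFP at TNNI1, mCherry at TNNI3) differentiated as embryoid bodies in stirred bioreactor at 37 °C, 5% O2: BMP4/activin A/bFGF, then VEGF, IWP-3, dorsomorphin, SB431542, then VEGF alone. On day 14, dissociated cells seeded at 1.0×10^4 cells/well on iMatrix-511 in AK02-based cardiomyocyte medium.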

Structure (SMILES): O=C1c2ccc(N3CCOCC3)cc2CN1c1ccc2[nH]c(-c3ccc(Br)cc3)nc2c1 [Example 8, 2-(2-(4-bromophenyl)-1H-benzimidazol-5-yl)-5-(morpholin-4-yl)isoindolin-1-one]
- average fluorescent intensity (at 1 μM) (test compound 1 μM added on 3rd and 6th culture days): 985
- average fluorescent intensity (at 30 μM) (test compound 30 μM added on 3rd and 6th culture days): —
